Source: patent US12209261B2, “Media for the expression of recombinant vitamin K-dependent proteins” (CSL Behring Lengnau AG, priority 2015, dated 2025)

Key:
[1] = test system: CHO cells expressing FVII; assay: Determination of cell growth and viability (viable cell density, flow cytometry with propidium iodide); assay type: cell-based, Chinese Hamster; conditions: for impact on viable cell density (VCD): summary in description, supplement present in cell culture medium, FIGS. 1A-8A
Procedure: (§1) Chinese Hamster Ovary cell line that expresses recombinant human Factor VII fusion protein was created using the GS expression system (Lonza). These cells were maintained in commercially available CD-CHO AGT medium (Invitrogen) supplemented with 50 μg/L reduced menadione sodium bisulfite (rMSB) (Richman), 25 μM methionine sulfoximine (MSX) (Sigma) and 1 mg/L insulin (Novo Nordisk). Cells were grown in shake flasks maintained at 37° C. with 8% CO2 atmosphere and subcultured every 3 days to 3×10^5 cells/mL.
Cells from the exponential growth phase of the cultures (at the end of regular 3-day passages) were used for the experiments. The cells were centrifuged, appropriate amount of spent media removed and cell pellets were resuspended in remaining spent media to a cell concentration of 3×10^6 cells/mL. 50 μL of this cell suspension was used to inoculate each well of a polypropylene V-bottom square 96-deepwell plate (Corning) containing 450 μL of a cell culture media based on DMEM/F12 supplemented with different levels of reduced L-glutathione (Sigma). The reduced L-glutathione concentration ranges tested were 0.01-15 mM with a corresponding reduced L-glutathione-free negative control. All cultures contained 213 μg/L rMSB to support appropriate cellular processing of Factor VII. All liquid handling steps were performed using a Tecan Freedom EVO® 200 robotic platform.
(§2) Culture plates were sealed with a breathable membrane (Corning) to maintain sterility and cultures were maintained at 37° C. with 8% CO2 atmosphere in a shaker incubator (Kuhner) operating at 350 rpm with an oribital diameter of 25 mm.
The cell density and viability in the culture were determined offline from a sample of culture obtained at day 5 and day 7 (counted from inoculation of the culture) using a MACSQuant® Analyzer 10 flow cytometer (Miltenyi Biotec), utilizing propidium iodide (Miltenyi Biotec) for viability staining. […]
The cell density and viability were determined as described for Example 1.

[2] = test system: recombinant human Factor VII fusion protein; assay: Recombinant Factor VII chromogenic activity in culture supernatants (COASET Factor VII kit); assay type: cell-based; conditions: for effect on chromogenic activity of FVII: supernatant at days 7, 9 and 10; for impact on yield and/or activity of FVII: summary in description, supplement present in cell culture medium during FVII expression, FIGS. 1B-8C
Procedure: as §1
Cells from the exponential growth phase of the cultures (at the end of regular 3-day passages) were used for the experiments. The cells were centrifuged, appropriate amount of spent media removed and cell pellets were resuspended in remaining spent media to a cell concentration of 3×10^6 cells/mL. 50 μL of this cell suspension was used to inoculate each well of a polypropylene V-bottom square 96-deepwell plate (Corning) containing 450 μL of a cell culture media based on DMEM/F12 supplemented with different levels of reduced L-glutathione (Sigma). […] All cultures contained 213 μg/L rMSB to support appropriate cellular processing of Factor VII. All liquid handling steps were performed using a Tecan Freedom EVO® 200 robotic platform.
as §2
Recombinant Factor VII chromogenic activity in the cultures were determined from serially diluted supernatant samples obtained at days 7, 9 and 10 (counted from inoculation of the culture) using a commercially available chromogenic kit COASET Factor VII kit (Chromogenix). The assay was adapted for use with the SYSMEX® CS-5100 automated hemostasis analyzer (Siemens Healthcare) and performed according to manufacturers' instructions.
Cells from the exponential growth phase of the cultures (at the end of regular 3-day passages) were used for the experiments. The cells were centrifuged, appropriate amount of spent media removed and cell pellets were resuspended in remaining spent media to a cell concentration of 3×10^6 cells/mL. 50 μL of this cell suspension was used to inoculate each well of a polypropylene V-bottom square 96-deepwell plate (Corning) containing 450 μL of a cell culture media based on DMEM/F12 supplemented with different levels of alpha-ketoglutaric acid (Sigma), malic acid (Sigma), succinic acid (Sigma), oxaloacetic acid (Sigma), fumaric acid (Sigma), citric acid (Sigma) or sodium pyruvate (Sigma). […]
Recombinant Factor VII chromogenic activity in the cultures was determined as described for Example 1.

| SMILES | effect on viable cell density ([1]; Example 1, reduced L-glutathione 0.01-15 mM in DMEM/F12-based medium, day 5 and day 7, at most concentrations tested, FIG. 1A) | impact on viable cell density (VCD) [1] | effect on chromogenic activity of FVII ([2]; Example 1, reduced L-glutathione 0.01-15 mM, FIGS. 1B and 1C) | impact on yield and/or activity of FVII [2] | effect on chromogenic activity of FVII ([2]; Example 2, TCA intermediates 0.06-60 mM, sodium pyruvate 0.01-10 mM, FIGS. 2B-8C) |
| --- | --- | --- | --- | --- | --- |
| N[C@@H](CCC(=O)N[C@@H](CS)C(=O)NCC(=O)O)C(=O)O [L-glutathione, (2S)-2-amino-5-[[(2R)-1-(carboxymethylamino)-1-oxo-3-sulfanylpropan-2-yl]amino]-5-oxopentanoic acid] | no effect on the viable cell density | only minor impact on the viable cell density | increases chromogenic activity of FVII | enhances yield and/or activity of FVII |  |
| CC(=O)C(=O)[O-].[Na+] [Sodium pyruvate, sodium pyruvate, reference compound] |  | only minor impact on the viable cell density |  | no impact on yield and/or activity of FVII | no effect on the chromogenic activity of FVII |
